Converted amounts (≈) assume the structure as drawn. The source made the active and inactive calls. No cut-off for these calls is given here.
Tests used:
Type in all cases: functional
[1] = tested on: Mycobacterium tuberculosis; experiment: Antituberculosis activity against Mycobacterium tuberculosis H37Rv by agar dilution method
[2] = tested on: HeLa; experiment: Cytotoxicity against human HeLa cells after 48 hrs by MTT assay; set-up: concentration or dose not given beside the values
[3] = tested on: A549; experiment: Cytotoxicity against human A549 cells after 48 hrs by MTT assay; set-up: concentration or dose not given beside the values
[4] = tested on: SK-N-SH; experiment: Cytotoxicity against human SK-N-SH cells after 48 hrs by MTT assay; set-up: concentration or dose not given beside the values

Compound	MIC [1]	Activity [2]	Activity [3]	Activity [4]
O=C(O)c1cn(C2CC2)c2cc(N3CCNCC3)c(F)cc2c1=O [CIPROFLOXACIN]	9.44 µM (≈ 3.13 µg/mL)			
CCOC(=O)C1=C(C(F)(F)F)NC(=O)NC1c1coc2cc3occc3cc2c1=O (stereo not given)	7.38 µM (≈ 3.12 µg/mL)	40.9%	21.8%	6.9%
COCCOC(=O)C1=C(C)NC(=O)NC1c1coc2ccc(C)cc2c1=O (stereo not given)	34.1 µM (≈ 12.7 µg/mL)	40.2%	28.4%	35.6%
CCOC(=O)C1=C(C)NC(=S)NC1c1coc2ccc(C)cc2c1=O (stereo not given)	34.9 µM (≈ 12.5 µg/mL)	43.2%	18.3%	7%
CCOC(=O)C1=C(c2ccccc2)NC(=S)NC1c1coc2ccc(C)cc2c1=O (stereo not given)	14.9 µM (≈ 6.26 µg/mL)	31.5%	27.2%	12.1%
CCOC(=O)C1=C(C)NC(=O)NC1c1coc2c(ccc3occc32)c1=O (stereo not given)	34 µM (≈ 12.5 µg/mL)	42.4%	33.8%	inactive
CCOC(=O)C1=C(C)NC(=O)NC1c1coc2ccc(-c3ccccc3)cc2c1=O (stereo not given)	30.7 µM (≈ 12.4 µg/mL)	45.3%	7.2%	inactive
CCOC(=O)C1=C(CCl)NC(=O)NC1c1coc2ccccc2c1=O (stereo not given)	34.5 µM (≈ 12.5 µg/mL)	23.3%	30.7%	18.6%
CCOC(=O)C1=C(c2ccccc2)NC(=O)NC1c1coc2ccc(-c3ccccc3)cc2c1=O (stereo not given)	25.9 µM (≈ 12.1 µg/mL)	inactive	inactive	inactive
CCOC(=O)C1=C(C(F)(F)F)NC(=O)NC1c1coc2cccc(C)c2c1=O (stereo not given)	3.91 µM (≈ 1.55 µg/mL)	61.3%	22%	35.9%
CCOC(=O)C1=C(C)NC(=O)NC1c1coc2ccc(Br)cc2c1=O (stereo not given)	30.8 µM (≈ 12.5 µg/mL)	32.8%	51.4%	31.1%
CCOC(=O)C1=C(C)NC(=O)NC1c1coc2ccccc2c1=O (stereo not given)	76.2 µM (≈ 25 µg/mL)	16.6%	18.1%	19%
COCCOC(=O)C1=C(C)NC(=O)NC1c1coc2ccc(-c3ccccc3)cc2c1=O (stereo not given)	57.6 µM (≈ 25 µg/mL)	33.5%	34.4%	13.4%
CCOC(=O)C1=C(C(F)(F)F)NC(=O)NC1c1coc2ccc(C)cc2c1=O (stereo not given)	7.86 µM (≈ 3.12 µg/mL)	33.5%	37.4%	45.5%
CCOC(=O)C1=C(C(F)(F)F)NC(=O)NC1c1coc2c(ccc3occc32)c1=O (stereo not given)	3.67 µM (≈ 1.55 µg/mL)	32.8%	27.5%	34.3%
CCOC(=O)C1=C(c2ccccc2)NC(=O)NC1c1coc2ccccc2c1=O (stereo not given)	64.1 µM (≈ 25 µg/mL)	5.3%	15.4%	15%
CCOC(=O)C1=C(C)NC(=O)NC1c1coc2ccc(-c3ccco3)cc2c1=O (stereo not given)	15.9 µM (≈ 6.25 µg/mL)	35.4%	34.5%	46.4%
CCOC(=O)C1=C(CCl)NC(=O)NC1c1coc2ccc(C)cc2c1=O (stereo not given)	16.6 µM (≈ 6.26 µg/mL)	81.4%	46.2%	55.3%
CCOC(=O)C1=C(C(F)(F)F)NC(=O)NC1c1coc2ccccc2c1=O (stereo not given)	7.9 µM (≈ 3.02 µg/mL)	29.2%	inactive	23.4%
CCOC(=O)C1=C(c2ccccc2)NC(=O)NC1c1coc2c(ccc3occc32)c1=O (stereo not given)	14.5 µM (≈ 6.25 µg/mL)	43.3%	33.3%	39.4%

Compound	MIC [1]	Activity [2]	Activity [3]	Activity [4]
NNC(=O)c1ccncc1 [ISONIAZID]	0.66 µM (≈ 0.0905 µg/mL)			
COCCOC(=O)C1=C(C)NC(=S)NC1c1coc2ccc(C)cc2c1=O (stereo not given)	32.2 µM (≈ 12.5 µg/mL)	17.4%	21.2%	22.8%
CCOC(=O)C1=C(C)NC(=O)NC1c1coc2c([N+](=O)[O-])cccc2c1=O (stereo not given)	4.18 µM (≈ 1.56 µg/mL)	60.6%	47.6%	56%
CCOC(=O)C1=C(C)NC(=S)NC1c1coc2ccc(Br)cc2c1=O (stereo not given)	29.7 µM (≈ 12.6 µg/mL)	41.1%	43.5%	20%
COCCOC(=O)C1=C(C)NC(=O)NC1c1coc2cc3occc3cc2c1=O (stereo not given)	31.4 µM (≈ 12.5 µg/mL)	37.6%	34.7%	34.7%
CCOC(=O)C1=C(C)NC(=S)NC1c1coc2ccc(-c3ccccc3)cc2c1=O (stereo not given)	59.5 µM (≈ 25 µg/mL)	40.9%	37.4%	25.4%
CCOC(=O)C1=C(c2ccccc2)NC(=O)NC1c1coc2ccc(C)cc2c1=O (stereo not given)	30.9 µM (≈ 12.5 µg/mL)	29.8%	18.6%	inactive
COc1cccc2c1C(=O)c1c(O)c3c(c(O)c1C2=O)C[C@@](O)(C(=O)CO)C[C@@H]3O[C@H]1C[C@H](N)[C@H](O)[C@H](C)O1 [DOXORUBICIN]		86.5%	55%	31.8%
CCOC(=O)C1=C(C)NC(=O)NC1c1coc2ccc(C)cc2c1=O (stereo not given)	36.5 µM (≈ 12.5 µg/mL)	16.6%	24.8%	1.7%
CCOC(=O)C1=C(C)NC(=S)NC1c1coc2ccccc2c1=O (stereo not given)	72.7 µM (≈ 25 µg/mL)	49.3%	26.3%	32.7%
CCOC(=O)C1=C(C(F)(F)F)NC(=O)NC1c1coc2ccc(-c3ccccc3)cc2c1=O (stereo not given)	3.39 µM (≈ 1.55 µg/mL)	28.6%	31.3%	10.7%
CCOC(=O)C1=C(c2ccccc2)NC(=O)NC1c1coc2cc3occc3cc2c1=O (stereo not given)	14.5 µM (≈ 6.25 µg/mL)	59.1%	13.1%	inactive
COCCOC(=O)C1=C(C)NC(=S)NC1c1coc2ccccc2c1=O (stereo not given)	66.8 µM (≈ 25 µg/mL)	inactive	inactive	inactive
COCCOC(=O)C1=C(C)NC(=O)NC1c1coc2ccc(Br)cc2c1=O (stereo not given)	28.7 µM (≈ 12.5 µg/mL)	40.2%	29.9%	38.4%
CCOC(=O)C1=C(C)NC(=O)NC1c1coc2ccc([N+](=O)[O-])cc2c1=O (stereo not given)	4.18 µM (≈ 1.56 µg/mL)	54.4%	inactive	28.7%
CCOC(=O)C1=C(c2ccccc2)NC(=S)NC1c1coc2ccccc2c1=O (stereo not given)	61.6 µM (≈ 25 µg/mL)	33%	9.4%	1.9%
CC[C@@H](CO)NCCN[C@@H](CC)CO [ETHAMBUTOL]	7.63 µM (≈ 1.56 µg/mL)			
COCCOC(=O)C1=C(C)NC(=O)NC1c1coc2ccccc2c1=O (stereo not given)	69.8 µM (≈ 25 µg/mL)	38.5%	23.5%	23.9%
COCCOC(=O)C1=C(C)NC(=O)NC1c1coc2c(ccc3occc32)c1=O (stereo not given)	31.4 µM (≈ 12.5 µg/mL)	61.2%	4.5%	8.4%
CCOC(=O)C1=C(C)NC(=O)NC1c1coc2cc3occc3cc2c1=O (stereo not given)	34 µM (≈ 12.5 µg/mL)	51.5%	29.6%	37.5%

Reference: ChEMBL document CHEMBL1770089, “Synthesis, structure-activity relationship of novel substituted 4H-chromen-1,2,3,4-tetrahydropyrimidine-5-carboxylates as potential anti-mycobacterial and anticancer agents” (2011)
